Data from a melting point compilation (Tetko et al.; mined from patent text by program, amines drawn as free bases though some values may be those of a salt).

Row | SMILES | melting point [°C]
1 | COC(=O)N1C2=C(C(=O)CC(C)(C)C2)C(c2ccc([N+](=O)[O-])cc2)C2=C1CC(C)(C)CC2=O | 189 to 190
2 | CN1C(=O)SC(Cc2ccc(NC(=O)/C=C/c3cnn(C)c3-c3ccc(F)cc3)cc2)C1=O (stereo not given) | 228 to 229
3 | CC(C)=CCn1c(Cl)nc2c1c(=O)[nH]c(=O)n2C | 226 to 228
4 | c1ccc(Sc2sc(-c3ccccc3)cc2-c2ccccc2)cc1 | 96 to 97
5 | COc1cc2c(cc1OC)C(O)(CN)CCC2 (stereo not given) | 107 to 109
6 | COc1cc(C(F)(F)F)nn1-c1ccc(NC(=O)c2ccncc2F)cc1 | 160 to 161
7 | ClCc1cccc(/C=C/c2cc(-c3ccsc3)cs2)c1 | 137 to 138
8 | CN(C(=O)COc1nc(C(Cl)(Cl)Cl)ns1)C1=CCCCC1 | 78
9 | Cc1cccc(-c2n[nH]cc2-c2ccc(F)c(-c3cn(CCN(C)C)cn3)c2)n1 | 130 to 131
10 | CCCCc1nn2c(-c3ccccc3)c(C)nc2n1Cc1ccc(-c2ccccc2-c2nnn[nH]2)cc1 | > 108
11 | COc1ccc2nc(Cl)nc(N(C)c3ccccc3)c2c1 | 133 to 134
12 | C=CCNC(=S)Cc1ccccn1 | 67 to 68
13 | ON=C1CCOc2cc(Cl)c(Cl)cc21 | 192 to 193
14 | NC(=O)N(O)Cc1ccc(C(O)C#Cc2ccsc2)cc1 (stereo not given) | 117 to 119
15 | O=c1oc(-c2ccc(OCCc3ccccc3)cc2)cc(O)c1SCCc1ccccc1 | 103 to 106
16 | COC(=O)c1c(C(F)F)nc(C(F)(F)F)c(C(=O)OC)c1CC(C)C | 36 to 37
17 | COC(=O)CCCCC(=O)c1cccc(F)c1O | 59 to 60
18 | CN(C)c1ccc2cc(-c3ccnc(N)c3C#N)ccc2c1 | 256 to 257
19 | O=c1c2c(Cc3ccccc3Cl)n[nH]c2c2cccnc2n1-c1cccc(C(F)(F)F)c1 | 276 to 278

Row | SMILES | melting point [°C]
20 | O=C(c1ccccc1)c1cnn2c(-c3cccc(C(F)(F)F)c3)ccnc12 | 148 to 150
21 | CN(C)CCNC(=O)c1ccc(-c2ccc3nnn(Cc4ccc5ncccc5c4)c3n2)cc1 | 122 to 125
22 | O=C1NC(=O)/C(=C/c2cn(-c3ccccc3)nc2OCc2ccccc2)S1 | > 300
23 | CC(C)c1cccc(C(C)C)c1N=C(Nc1c(C(C)C)cccc1C(C)C)ON=C1CCCCC1 | 150 to 152
24 | C=CCOc1ccccc1-c1ccc(C(N)=O)c(=O)[nH]1 | 210 to 212
25 | Oc1cc(-c2ccccc2)cc(-c2ccccc2)c1 | 97
26 | Cc1ccc(O)c2c1CCC2=NO | 148 to 150
27 | Cc1cc(Br)c(C)cc1N | 92 to 93
28 | CC(C)(C)n1ncc(C(N)=O)c1N | 193 to 195
29 | CCOC(=O)c1c(Cl)nc(-c2cccc([N+](=O)[O-])c2)c([N+](=O)[O-])c1C(=O)OCC | 90 to 91
30 | CCOCc1nc2c(N)nc3cc(-c4ccc(F)nc4)cnc3c2n1CC(C)(C)F | 198 to 199
31 | O=C(Nc1ccc(-n2nc(C(F)(F)F)nc2Cl)cc1)c1ccncc1F | 167 to 170
32 | CSc1nc(F)cc2nnc(SCc3ccccc3)n12 | 74 to 77
33 | COc1ccc(/C=C/c2ccc3nc(C(=O)N[C@@H](Cc4ccc(OCc5ccccc5)cc4)C(=O)O)cn3c2)cc1 | 262 to 263
34 | CCC1(CCCN=[N+]=[N-])C(=O)NC(=O)NC1=O | 182 to 184
35 | COc1cccc2c1N(CCCO)Cn1cc(CO)cc1-2 | 116 to 118
36 | CC(C)(C)OC(=O)N[C@@H](CC(=O)OCc1ccccc1)C(=O)NCCc1ccc(OCC(=O)OCc2ccccc2)cc1 | 178 to 180
37 | O=C(O)C=CC=CCS(=O)(=O)c1ccccc1 | 148 to 150
38 | OCc1cn(-c2ccc(-c3ccccc3)cc2)cn1 | 173 to 177

Row | SMILES | melting point [°C]
39 | CCOC(=O)c1[nH]c2cc(Br)c(Cl)cc2c1-c1ccccc1 | 205 to 206
40 | CCCNC(=O)C(C#N)(CC)c1ccccc1 (stereo not given) | 55 to 56
41 | CCCN(CCC)c1ccc(S(=O)(=O)N2CCCCC2=O)cc1 | 105 to 108
42 | CC1(C)C(c2ccc(O)cc2)C1(Cl)Cl (stereo not given) | 111 to 112
43 | c1ccc(CN2CCN(c3n[nH]c4c3CCc3ccccc3-4)CC2)cc1 | 254 to 256
44 | CCCC(=O)c1cc2nc(C(=O)OCC)n(C)c2cc1C | 106 to 108
45 | CCOC(=O)C1CCc2c(c(C)nn2C)C1=O (stereo not given) | 76.5 to 79
46 | O=C1Nc2ccccc2N(C(=O)CN2CCCCC2CN2CCCC2)c2cscc21 (stereo not given) | 205 to 207
47 | CS(=O)(=O)c1ccc(Oc2cc(OCc3ccccc3)c3[nH]c(-c4nnc(CO)s4)cc3c2)cc1 | 159 to 160
48 | COC(=O)C=Cc1cncc2ccccc12 | 79 to 80
49 | COc1ccccc1NC(=O)c1ccccc1CN1C(=O)C2(COc3cc4c(cc32)CCO4)c2ccccc21 (stereo not given) | 172 to 174
50 | COc1ccc(C)cc1NC(=O)Nc1ccc(N2CCN(C(=O)Nc3ccc(OCCO)cc3C)CC2)nc1 | 189 to 190
51 | Cc1cc(=O)n(C2CCCCC2)n1C | 99 to 100
52 | O=[N+]([O-])c1cccnc1NCc1ccccc1 | 81 to 82
53 | CC(C)(C)OC(=O)N1CCC(O)(CS(N)(=O)=O)CC1 | 176 to 180
54 | O=C(Nc1cccc(C(F)(F)F)c1)c1ccccc1[N+](=O)[O-] | 134 to 135
55 | O=C1c2ccccc2CS(=O)(=O)N1CCC(c1ccccc1)N1CCOCC1 (stereo not given) | 130
56 | O=C(O)c1cn(-n2cnnc2)c2nc(Cl)c(F)cc2c1=O | 230
57 | O=C1CC2CCc3ccccc3C2=NN1c1ccccc1O (stereo not given) | 221 to 222

Continued, values first:

Row | melting point [°C] | SMILES
58 | 189 to 191 | CCOCc1nc2c(N)nc(C)c(C)c2n1Cc1cc(-c2cccnc2)no1
59 | 116 to 117 | CCOC(=O)CCCCn1c(=O)[nH]c2ccsc2c1=O
60 | 122 to 125 | CN(C)CCCNC(=O)c1cccc([N+](=O)[O-])c1Cl
61 | 98 | O=[N+]([O-])c1ccc2c(c1)O[C@@H](CNCc1ccccc1)CO2
62 | 56 to 57 | CC(C)N(C)c1ncc([N+](=O)[O-])cc1Cl
63 | 58 to 60 | CC(=O)NCc1nc(-c2ccccc2)c(-c2ccccc2)o1
64 | 129 | COC(=O)CCc1cc2cc(Cl)ccc2n1S(=O)(=O)c1ccc2c(c1)CCN2C(C)=O
65 | 174 to 176 | CC(=O)NC[C@H]1CN(c2ccc(N3CCC(n4nnc(N5CCN(C)CC5)n4)CC3)c(F)c2)C(=O)O1
66 | 95 to 96 | CN1CCC(Oc2ccccn2)(c2ccccc2)CC1
67 | 31 to 32.5 | CCOC(=O)C=Cc1ccc(C(F)(F)F)cc1
68 | 145 to 147 | COc1ccc2c(n1)C1(CO2)C(=O)N(Cc2ccc(C(F)(F)F)o2)c2ccccc21 (stereo not given)
69 | 163 to 165 | CS(=O)(=O)c1ccc(C2=CC(=O)C3(CCOCC3)O2)cc1
70 | 163 to 167 | COC(=O)c1cccc2nc(N3CCOCC3)n(Cc3ccc(-c4ccccc4)c(-c4nnn[nH]4)c3)c12
71 | 103 to 104 | COc1cccc(-c2ccnc(Nc3cccc(OC(F)(F)C(F)F)c3)n2)c1
72 | 94 to 95 | CCOC(=O)CCc1cn(-c2ccc(Br)cn2)nc1C(C)(C)C
73 | 188 | O=C(N[C@H]1CC[C@H](CCN2CCC(c3cccc4c3CCO4)CC2)CC1)c1ccc(Cl)cc1Cl
74 | 218 to 219 | CC(C)c1cccc(CCCO)c1NC(=O)CC1c2ccccc2Oc2ccccc21
75 | 232 to 234 | N#Cc1ncccc1-c1ccc2c(c1)C1(CCCCC1)C(=O)N2
76 | 202 to 203 | Cc1ccccc1CNC(=O)c1cc(C)c([N+](=O)[O-])c(C)c1
77 | 130 to 136 | C#CCNC(=S)NC1CCC(=O)c2sccc21 (stereo not given)
78 | 130 to 132 | COc1cc(NC2=NCC(c3ccccc3)O2)ccc1-c1cnco1 (stereo not given)
79 | 72.5 to 74.5 | O=C(C1CC2(CCN1)OCCO2)N1CCCC1 (stereo not given)

Row | melting point [°C] | SMILES
80 | 204 to 206 | Cn1ncnc1COc1nn2c(-c3ccco3)nncc2c1-c1ccccc1F
81 | 165 | CC(=O)OC1CSC(Oc2ccccc2-c2ccncc2)C(OC(C)=O)C1OC(C)=O (stereo not given)
82 | 104 to 106 | CC(O)c1ccc(-c2ccc(C(=O)OCc3ccccc3)cc2)cc1 (single isomer, unassigned; (+))
83 | 192 to 194 | COc1cc(OC)c(-c2cccs2)cc1C#CC(=O)c1cc(OC)c(OCC(=O)O)c(OC)c1
84 | 95 to 105 | COCOc1ccc(C2(c3cccc(-c4cccnc4F)c3)N=C(N)N3CCCN=C32)cc1 (stereo not given)
85 | 81.9 to 82.3 | Cc1c(C(F)(F)F)nc2c(C(F)(F)F)cccc2c1Br
86 | 154 to 156 | CCCCCCCCCCCCCCCCCCS(=O)(=O)Nc1cc(C(=O)Nc2ccccc2)ccc1OC
87 | 149 to 150 | COc1ccccc1P(CCCP(c1ccccc1OC)c1ccccc1OC)c1ccccc1OC
88 | > 220 | O=C(O)Cc1ccc2c(c1)C(=O)c1cc3ccccc3cc1C2=O
89 | 39 to 41 | Cc1c(Oc2ccccc2)cccc1Oc1ccccc1
90 | 192 to 199 | COc1ccc(-c2nc3cnc4ccccc4c3n2CC(C)C)cc1OC
91 | 195 to 196 | Oc1ccc(Nc2ccc3cc(O)ccc3c2)cc1
92 | 127 to 128 | CC1=NC(C)(C)N(O)C1(C)C
93 | 122 to 125 | COc1cc2ncc(C#N)c(Nc3ccc(F)c(Cl)c3)c2cc1NC(=O)C=CCN(CC(C)O)CC(C)O (stereo not given)
94 | 126 to 129 | CS(=O)(=O)Nc1ccc(N2CCC(O)CC2)cc1
95 | 145 to 150 | COC(=O)C(C)=CC=P(c1ccccc1)(c1ccccc1)c1ccccc1
96 | 190 to 192 | CC(C)(C)OC(=O)[C@@H]1CCCN2C(=O)CC[C@H](NC(=O)OCC3c4ccccc4-c4ccccc43)C(=O)N12
97 | 73 to 76 | CCCOc1ccc(-c2scc(-c3ccccc3Cl)c2CC(=O)NC(=N)NCCCO)cc1C
98 | 88 to 89 | NC(=O)N1CCC(=O)C(C(c2ccccc2)c2ccccc2)C1 (stereo not given)
99 | 185 | COc1cccc(Cl)c1-c1cc2c(c3c1C(=O)NC3=O)c1cc(O)ccc1n2CCN1CCOCC1
100 | 135 | O=C(Nc1cccc2[nH]ccc12)c1ccccc1OCCCCBr
